Where a SMILES comes first, the peptide text is derived from it.
What was measured:
Format in all cases: cell-based
[1] = test system: Corynebacterium jeikum (ATCC 33033); test: Carbohydrate Screening Test Method (Biolog phenotype microarray), Bacteria Code B; conditions: Commensal; carbon microarray plate, OD 600 nm, 36 hr, 33° C.; positive = more than 0.05 OD units above zero; blank cell = not utilized
Method: The screening process was set up to determine which carbohydrate sources promoted commensal and/or pathogenic bacteria as well as to obtain individual and combinations of carbohydrate sources that could serve as microbiota balancing agents that can support or maintain the healthy proportions of commensal skin bacteria of Corynebacterium, Staphylococcus, and Micrococcus. The screening was conducted utilizing Biolog phenotype microarray plates (Hayward, Calif.). Table 1 provides a coded list of the commensal and pathogenic skin bacteria that the carbohydrates were screened against.
(§1) The Bacteria Codes B, D, E, I, and J are commensal bacteria and are shaded in Table 2 for references purposes. The bacteria codes were each placed in a carbon microarray plate and screened through the Carbohydrate Screening Test Method, as described in the Test Methods section herein. If a particular bacteria code utilized a specific carbohydrate source as described in the Carbohydrate Screening Test Method, then the corresponding cell in Table 2 was marked with a Y (short for “Yes”).
To do so, the respective microarray data for the 79 carbohydrate sources was run through the GrowthRates 2.1 program to obtain growth parameters, such as growth rates and maximum yield data as described by the Belingham Research Institute, Hall, B. G., H. Acar and M. Barlow. […] Mol. Biol. Evol. […] The max yield parameters generated were utilized to calculate ratios of tested commensal bacteria. The ratios calculated were compared back to the desired ratios identified above (Corynebacterium to Staphylococcus of 1.3, Corynebacterium to Micrococcus of 1.4, and Staphylococcus to Micrococcus of 1.1).
(§2) As an example of this methodology used to calculate the commensal bacteria ratios and the difference between the calculated ratios and the desired ratios, an example code from Table 3 will be described. […] The max yields were then used to calculate ratios the bacteria would reach in a co-culture.
A passage of the culture was made using a sterile swab and streaked onto two M9*2 agar plates to prepare the incubated culture for the phenotype microarray pate according to Table 4.
(§3) All cultures were harvested and washed before inoculation into the carbon microarray plate (BiOLOG, Hayward Calif.), with Biolog Plates PM1 and PM2 each having a source definition of Carbon. The bacteria on the M9*2 agar was suspended via agitation with an inoculating loop in 1 mL of M9*1 media for collection in a 1.7 mL micro centrifuge tube, as noted in Table 4.

[2] = test system: Micrococcus luteus (SK58); test: Carbohydrate Screening Test Method (Biolog phenotype microarray), Bacteria Code E; conditions: Commensal; carbon microarray plate, OD 600 nm, 36 hr, 33° C.; positive = more than 0.05 OD units above zero; blank cell = not utilized
From the text: (§4) After creating desired ratios of various commensal skin bacteria in a healthy skin microbiome, 188 different carbohydrate sources were screened as the next step in determining potential prospects for skin microbiota balancing agents. The screening process was set up to determine which carbohydrate sources promoted commensal and/or pathogenic bacteria as well as to obtain individual and combinations of carbohydrate sources that could serve as microbiota balancing agents that can support or maintain the healthy proportions of commensal skin bacteria of Corynebacterium, Staphylococcus, and Micrococcus. The screening was conducted utilizing Biolog phenotype microarray plates (Hayward, Calif.). Table 1 provides a coded list of the commensal and pathogenic skin bacteria that the carbohydrates were screened against.
as §1
(§5) To do so, the respective microarray data for the 79 carbohydrate sources was run through the GrowthRates 2.1 program to obtain growth parameters, such as growth rates and maximum yield data as described by the Belingham Research Institute, Hall, B. G., H. Acar and M. Barlow. 2014 Growth Rates Made Easy. Mol. Biol. Evol. 31:232-238 doi:10.1093/molbev/mst197. The max yield parameters generated were utilized to calculate ratios of tested commensal bacteria. The ratios calculated were compared back to the desired ratios identified above (Corynebacterium to Staphylococcus of 1.3, Corynebacterium to Micrococcus of 1.4, and Staphylococcus to Micrococcus of 1.1).
as §2

[3] = test system: Staphylococcus epidermidis (M23864:W2); test: Carbohydrate Screening Test Method (Biolog phenotype microarray), Bacteria Code J; conditions: Commensal; carbon microarray plate, OD 600 nm, 36 hr, 33° C.; positive = more than 0.05 OD units above zero; blank cell = not utilized
From the text: as §4, §1, §5, §2

[4] = test system: commensal and pathogenic skin bacteria; test: Carbohydrate Screening Test Method, all bacteria codes tested; conditions: ten bacteria codes of Table 1
From the text: as §4, §1
(§6) The study employed 10 representative skin bacteria; Staphylococcus epidermidis ATCC 14990, Staphylococcus epidermidis M23864:W2, Staphylococcus aureus ATCC 6538, Staphylococcus aureus ATCC 25904 (Newman), Pseudomonas aeruginosa ATCC 9027, Micrococcus luteus ATCC […], Micrococcus luteus SK58, Klebsiella pneumoniae ATCC BAA-2146, Corynebacterium amycolatum SK46, and Corynebacterium minutissimum ATCC 23348. Cultures were started from freezer bead stocks by placing a single bead into 20 mL of tryptic soy broth (TSB) for all organisms except C. amycolatum SK46 and C. minutissimum ATCC 23348, which were placed into brain heart infusion (BHI) broth. Cultures were grown for about 24 hr at 37° C. except M. luteus ATCC 49732 and M. luteus SK58, which were grown at 30° C. A passage of the culture was made using a sterile swab and streaked onto two M9*2 agar plates to prepare the incubated culture for the phenotype microarray pate according to Table 4. Plates were incubated for about 24 hr at 37° C. except for M. luteus ATCC 49732 and M. luteus SK58, which were incubated at 30° C. for 24 hr.
as §3, with “4. The bacteria was suspended again in M9*1 media, agitated, and collected into the same 1.7 mL microcentrifuge tube used in the previous step. The tube was centrifuged for 5 minutes at 4,000×G, supernatant decanted, the pellet was resuspended in 1 mL of M9*1 media, and vortex. This washing process was repeated for a total of 4 times.” for “4.”
A tenfold dilution in M9*1 media was performed using 1 mL of the washed bacterial culture.

[5] = test system: Klebsiella pneumoniae (ATCC BAA-2146); conditions: Pathogenic; carbon microarray plate, OD 600 nm, 36 hr, 33° C.; positive = more than 0.05 OD units above zero; blank cell = not utilized
From the text: as §4
Table 2 provides the results of screening various carbohydrate sources against the commensal and pathogenic bacteria codes listed in Table 1. The Bacteria Codes B, D, E, I, and J are commensal bacteria and are shaded in Table 2 for references purposes. The bacteria codes were each placed in a carbon microarray plate and screened through the Carbohydrate Screening Test Method, as described in the Test Methods section herein. If a particular bacteria code utilized a specific carbohydrate source as described in the Carbohydrate Screening Test Method, then the corresponding cell in Table 2 was marked with a Y (short for “Yes”). […] Many of the carbohydrate sources were utilized by both commensal and pathogenic bacteria, and as such, would not provide an advantage for selective growth of the commensal bacteria. However, some of the carbohydrate sources were only used by commensal bacteria and were identified for further testing as described herein.
as §6
as §3, with “4. The bacteria was suspended again in M9*1 media, agitated, and collected into the same 1.7 mL microcentrifuge tube used in the previous step. The tube was centrifuged for 5 minutes at 4,000×G, supernatant decanted, the pellet was resuspended in 1 mL of M9*1 media, and vortex. This washing process was repeated for a total of 4 times.” for “4.”
A tenfold dilution in M9*1 media was performed using 1 mL of the washed bacterial culture. Of the tenfold dilution 200 μL was placed in an untreated 96-well plate (Falcon, Pasadena Tx.) for an initial optical density (OD) reading at a wavelength of 600 nm. The OD was used to correlate to colony forming units (CFU) per milliliter by using linear regression lines for each organism. […]

[6] = test system: Pseudomonas aeruginosa (ATCC 9027); conditions: Pathogenic; carbon microarray plate, OD 600 nm, 36 hr, 33° C.; positive = more than 0.05 OD units above zero; blank cell = not utilized
From the text: as §4, §1, §6
as §3, with “4. The bacteria was suspended again in M9*1 media, agitated, and collected into the same 1.7 mL microcentrifuge tube used in the previous step. The tube was centrifuged for 5 minutes at 4,000×G, supernatant decanted, the pellet was resuspended in 1 mL of M9*1 media, and vortex. This washing process was repeated for a total of 4 times.” for “4.”
A tenfold dilution in M9*1 media was performed using 1 mL of the washed bacterial culture. Of the tenfold dilution 200 μL was placed in an untreated 96-well plate (Falcon, Pasadena Tx.) for an initial optical density (OD) reading at a wavelength of 600 nm. The OD was used to correlate to colony forming units (CFU) per milliliter by using linear regression lines for each organism.

O=P(O)(O)OCC(O)CO (racemic) [D,L-α-Glycerol-Phosphate]
Carbohydrate Screening Results, Bacteria Code B [1]: Y
Carbohydrate Screening Results, Bacteria Code E [2]: Y
Carbohydrate Screening Results, Bacteria Code J [3]: Y

COC1OCC(O)C(O)C1O [β-Methyl-D-Xyloside]
utilization by the bacteria codes tested [4]: not utilized by any of the bacteria

CCCC(=O)C(=O)O [α-Keto-Valeric Acid]
utilization by the bacteria codes tested [4]: not utilized by any of the bacteria

O=C(O)c1ccccc1O [2-Hydroxy Benzoic Acid]
utilization by the bacteria codes tested [4]: not utilized by any of the bacteria

CCC(C)N (centres unmarked) [Sec-Butylamine]
utilization by the bacteria codes tested [4]: not utilized by any of the bacteria

2,3-Butanone
utilization by the bacteria codes tested [4]: not utilized by any of the bacteria

O=CC[C@H](O)[C@H](O)CO [2-Deoxy-D-Ribose]
utilization by the bacteria codes tested [4]: not utilized by any of the bacteria

OC[C@@]12OC[C@@H](O1)[C@@H](O)[C@@H](O)[C@@H]2O [Sedoheptulosan]
utilization by the bacteria codes tested [4]: not utilized by any of the bacteria

O=C(O)CCCO [y-Hydroxy Butyric Acid]
utilization by the bacteria codes tested [4]: not utilized by any of the bacteria

Dextrin
Carbohydrate Screening Results, Bacteria Code J [3]: Y
Carbohydrate Screening Results, Bacteria Code C [5]: Y

NCCCC[C@H](N)C(=O)O [L-Lysine]
utilization by the bacteria codes tested [4]: not utilized by any of the bacteria

Tween 20
utilization by the bacteria codes tested [4]: not utilized by any of the bacteria

O=C[C@H](O)[C@H](O)[C@H](O)CO [D-Ribose]
utilization by the bacteria codes tested [4]: not utilized by any of the bacteria

Glycogen
utilization by the bacteria codes tested [4]: not utilized by any of the bacteria

CC(C)[C@H](N)C(=O)O [L-Valine]
utilization by the bacteria codes tested [4]: not utilized by any of the bacteria

OCC(O)CO [Glycerol]
Carbohydrate Screening Results, Bacteria Code B [1]: Y
Carbohydrate Screening Results, Bacteria Code J [3]: Y
Carbohydrate Screening Results, Bacteria Code C [5]: Y

OC[C@@H](O)[C@@H](O)CO [i-Erythritol]
utilization by the bacteria codes tested [4]: not utilized by any of the bacteria

NCCCCC(=O)O [δ-Amino Valeric Acid]
Carbohydrate Screening Results, Bacteria Code J [3]: Y

Laminarin
utilization by the bacteria codes tested [4]: not utilized by any of the bacteria

NCC(=O)N1CCC[C@H]1C(=O)O [Glycyl-L-Proline] (H-Gly-Pro-OH)
utilization by the bacteria codes tested [4]: not utilized by any of the bacteria

CC(=O)N[C@H]1[C@H]([C@H](O)[C@H](O)CO)OC(O)(C(=O)O)C[C@@H]1O (some centres unmarked) [N-Acetyl-Neuraminic Acid]
utilization by the bacteria codes tested [4]: not utilized by any of the bacteria

O=C(CO)[C@@H](O)[C@H](O)[C@@H](O)C(=O)O [5-Keto-D-Gluconic Acid]
utilization by the bacteria codes tested [4]: not utilized by any of the bacteria

NCC(=O)O [Glycine]
utilization by the bacteria codes tested [4]: not utilized by any of the bacteria

O=C[C@H](O)[C@@H](O)[C@@H](O)[C@H](O)CO [D-Galactose]
Carbohydrate Screening Results, Bacteria Code B [1]: Y
Carbohydrate Screening Results, Bacteria Code E [2]: Y
Carbohydrate Screening Results, Bacteria Code F [6]: Y
Carbohydrate Screening Results, Bacteria Code J [3]: Y
Carbohydrate Screening Results, Bacteria Code C [5]: Y

CO[C@H]1O[C@H](CO)[C@@H](O)[C@H](O)[C@H]1O [α-Methyl-D-Glucoside]
utilization by the bacteria codes tested [4]: not utilized by any of the bacteria

Nc1ncnc2c1ncn2C1CC(O)C(CO)O1 (centres unmarked) [2-Deoxy Adenosine]
utilization by the bacteria codes tested [4]: not utilized by any of the bacteria

O=C[C@@H](O)[C@H](O)[C@@H](O)[C@@H](O)CO [L-Glucose]
utilization by the bacteria codes tested [4]: not utilized by any of the bacteria

OC[C@H](O)C(O)[C@@H](O)CO [L-Arabitol]
utilization by the bacteria codes tested [4]: not utilized by any of the bacteria

O=C(O)[C@H](O)[C@@H](O)[C@H](O)[C@H](O)CO [D-Gluconic Acid]
Carbohydrate Screening Results, Bacteria Code B [1]: Y
Carbohydrate Screening Results, Bacteria Code E [2]: Y
Carbohydrate Screening Results, Bacteria Code F [6]: Y
Carbohydrate Screening Results, Bacteria Code J [3]: Y
Carbohydrate Screening Results, Bacteria Code C [5]: Y

C[N+](C)(C)CC(O)CC(=O)[O-] (racemic) [D,L-Carnitine]
Carbohydrate Screening Results, Bacteria Code F [6]: Y
Carbohydrate Screening Results, Bacteria Code J [3]: Y

OC[C@H]1O[C@@H]2O[C@H]3[C@H](O)[C@@H](O)[C@@H](O[C@H]4[C@H](O)[C@@H](O)[C@@H](O[C@H]5[C@H](O)[C@@H](O)[C@@H](O[C@H]6[C@H](O)[C@@H](O)[C@@H](O[C@H]7[C@H](O)[C@@H](O)[C@@H](O[C@H]8[C@H](O)[C@@H](O)[C@@H](O[C@H]9[C@H](O)[C@@H](O)[C@@H](O[C@H]1[C@H](O)[C@H]2O)O[C@@H]9CO)O[C@@H]8CO)O[C@@H]7CO)O[C@@H]6CO)O[C@@H]5CO)O[C@@H]4CO)O[C@@H]3CO [γ-Cyclodextrin]
Carbohydrate Screening Results, Bacteria Code J [3]: Y

CC(=O)N[C@@H](CO)[C@@H](O)[C@H](O)[C@H](O)CO [N-Acetyl-D-Glucosaminitol]
Carbohydrate Screening Results, Bacteria Code J [3]: Y

NCC(O)c1ccc(O)cc1 [D.L-Octopamine]
Carbohydrate Screening Results, Bacteria Code F [6]: Y
Carbohydrate Screening Results, Bacteria Code J [3]: Y
Carbohydrate Screening Results, Bacteria Code C [5]: Y

Mannan
Carbohydrate Screening Results, Bacteria Code J [3]: Y

From patent publication US20210308034A1, “PREBIOTIC COMPOSITIONS AND METHODS FOR MAINTAINING A HEALTHY SKIN MICROBIOTA” (KIMBERLY-CLARK WORLDWIDE, INC., priority 2018, published 2021)
